What was measured:
[1] = Selectivity ratio of IC50 for inhibition of human Cx43 to IC50 for inhibition of human Cx26
[2] = target: Gap junction alpha-1 protein (Homo sapiens) (UniProt P17302); test: Inhibition of human Cx43 expressed in kanamycin-resistant Escherichia coli LB2003 cells in medium containing […] K+ and 10 uM IPTG by measuring cell growth at 15 uM after 18 hrs by growth complementation assay; set-up: scale not given: the % may be the effect or the level left
[3] = target: Gap junction beta-2 protein (Homo sapiens) (UniProt P29033); test: Inhibition of human Cx26 expressed in kanamycin-resistant Escherichia coli LB2003 cells in medium containing […] K+ and 500 uM IPTG by measuring cell growth at 50 uM after 18 hrs by growth complementation assay; set-up: scale not given: the % may be the effect or the level left
[4] = target: Gap junction alpha-1 protein (Homo sapiens) (UniProt P17302); test: Inhibition of human Cx43 expressed in kanamycin-resistant Escherichia coli LB2003 cells in medium containing […] K+ and 10 uM IPTG by measuring cell growth at 50 uM after 18 hrs by growth complementation assay; set-up: scale not given: the % may be the effect or the level left
[5] = target: Gap junction beta-2 protein (Homo sapiens) (UniProt P29033); test: Inhibition of human Cx26 expressed in kanamycin-resistant Escherichia coli LB2003 cells in medium containing […] K+ and 500 uM IPTG by measuring cell growth at 15 uM after 18 hrs by growth complementation assay; set-up: scale not given: the % may be the effect or the level left

Gap junction alpha-1 protein (Homo sapiens), sequence (P17302 whole entry): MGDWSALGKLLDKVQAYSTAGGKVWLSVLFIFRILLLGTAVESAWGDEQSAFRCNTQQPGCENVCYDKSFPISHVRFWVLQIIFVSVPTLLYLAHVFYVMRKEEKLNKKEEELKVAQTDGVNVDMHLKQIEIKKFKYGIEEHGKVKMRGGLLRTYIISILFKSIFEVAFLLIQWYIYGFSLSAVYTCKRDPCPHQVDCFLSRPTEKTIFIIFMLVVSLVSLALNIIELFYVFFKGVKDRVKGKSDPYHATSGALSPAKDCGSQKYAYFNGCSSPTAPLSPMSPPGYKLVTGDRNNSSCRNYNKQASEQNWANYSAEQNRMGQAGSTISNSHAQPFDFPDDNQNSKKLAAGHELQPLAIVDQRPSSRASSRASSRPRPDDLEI

SMILES | Selectivity ratio [1] | Activity [2] [%] | Activity [3] [%] | Activity [4] [%] | Activity [5] [%]
NC[C@H]1O[C@H](O[C@H]2[C@H](O)[C@@H](O[C@H]3O[C@H](COCc4ccc5ccccc5c4)[C@@H](OCc4ccc5ccccc5c4)[C@H](N)[C@H]3O)[C@H](N)C[C@@H]2N)[C@H](O)[C@@H](O)[C@@H]1O | 1.07 |  |  |  | 
NC[C@H]1O[C@H](O[C@H]2[C@H](O)[C@@H](O[C@H]3O[C@H](COCc4cccc(-c5ccccc5)c4)[C@@H](OCc4cccc(-c5ccccc5)c4)[C@H](N)[C@H]3O)[C@H](N)C[C@@H]2N)[C@H](O)[C@@H](O)[C@@H]1O | 1.23 |  |  |  | 
CCCCCCCC(=O)NC[C@H]1O[C@H](O[C@H]2[C@H](O)[C@@H](O[C@H]3O[C@H](CO)[C@@H](O)[C@H](N)[C@H]3O)[C@H](N)C[C@@H]2N)[C@H](O)[C@@H](O)[C@@H]1O |  | 17 | 25.2 | 37.2 | 14
CCCCCCCCCC(=O)NC[C@H]1O[C@H](O[C@H]2[C@H](O)[C@@H](O[C@H]3O[C@H](CO)[C@@H](O)[C@H](N)[C@H]3O)[C@H](N)C[C@@H]2N)[C@H](O)[C@@H](O)[C@@H]1O |  | 44.4 | 33.6 | 53.5 | 16.1
COc1ccc(COC[C@H]2O[C@H](O[C@@H]3[C@@H](O)[C@H](O[C@H]4O[C@H](CN)[C@@H](O)[C@H](O)[C@H]4O)[C@@H](N)C[C@H]3N)[C@H](O)[C@@H](N)[C@@H]2OCc2ccc(OC)cc2)cc1 | 3.17 |  |  |  | 
NC[C@H]1O[C@H](O[C@H]2[C@H](O)[C@@H](O[C@H]3O[C@H](COCc4ccc(F)cc4)[C@@H](OCc4ccc(F)cc4)[C@H](N)[C@H]3O)[C@H](N)C[C@@H]2N)[C@H](O)[C@@H](O)[C@@H]1O | 0.3 |  |  |  | 
NC[C@H]1O[C@H](O[C@H]2[C@H](O)[C@@H](O[C@H]3O[C@H](COc4ccc([N+](=O)[O-])cc4)[C@@H](O)[C@H](N)[C@H]3O)[C@H](N)C[C@@H]2N)[C@H](O)[C@@H](O)[C@@H]1O |  | 36.5 | 62.6 | 49.3 | 35.9
N[C@@H]1[C@@H](O)[C@@H](O[C@@H]2[C@@H](O)[C@H](O[C@H]3O[C@H](CNC(=O)CCCc4cc5ccc6cccc7ccc(c4)c5c67)[C@@H](O)[C@H](O)[C@H]3O)[C@@H](N)C[C@H]2N)O[C@H](CO)[C@H]1O | 2.16 | 52.2 | 79.2 | 69.6 | 36.9
NC[C@H]1O[C@H](O[C@H]2[C@H](O)[C@@H](O[C@H]3O[C@H](COCc4ccc(Cl)cc4)[C@@H](OCc4ccc(Cl)cc4)[C@H](N)[C@H]3O)[C@H](N)C[C@@H]2N)[C@H](O)[C@@H](O)[C@@H]1O | 0.15 |  |  |  | 
N[C@@H]1[C@@H](O)[C@@H](O[C@@H]2[C@@H](O)[C@H](O[C@H]3O[C@H](CNC(=O)c4ccc5cc(O)ccc5c4)[C@@H](O)[C@H](O)[C@H]3O)[C@@H](N)C[C@H]2N)O[C@H](CO)[C@H]1O |  | 34.1 | 32.8 | 37.1 | 4.7
CCCCCCC(=O)NC[C@H]1O[C@H](O[C@H]2[C@H](O)[C@@H](O[C@H]3O[C@H](CO)[C@@H](O)[C@H](N)[C@H]3O)[C@H](N)C[C@@H]2N)[C@H](O)[C@@H](O)[C@@H]1O |  | 18.5 | 34.3 | 36 | 22.5
Cc1ccc(OC[C@H]2O[C@H](O[C@@H]3[C@@H](O)[C@H](O[C@H]4O[C@H](CN)[C@@H](O)[C@H](O)[C@H]4O)[C@@H](N)C[C@H]3N)[C@H](O)[C@@H](N)[C@@H]2O)cc1 | 7.97 | 63.8 | 28.2 | 76.8 | 19.3
COc1ccc2cc(C(=O)NC[C@H]3O[C@H](O[C@H]4[C@H](O)[C@@H](O[C@H]5O[C@H](CO)[C@@H](O)[C@H](N)[C@H]5O)[C@H](N)C[C@@H]4N)[C@H](O)[C@@H](O)[C@@H]3O)ccc2c1 |  | 42.1 | 27.9 | 45.1 | 15.1
Cc1ccc(COC[C@H]2O[C@H](O[C@@H]3[C@@H](O)[C@H](O[C@H]4O[C@H](CN)[C@@H](O)[C@H](O)[C@H]4O)[C@@H](N)C[C@H]3N)[C@H](O)[C@@H](N)[C@@H]2OCc2ccc(C)cc2)cc1 | 1.39 |  |  |  | 
Cc1ccc(S(=O)(=O)OC[C@H]2O[C@H](O[C@@H]3[C@@H](O)[C@H](O[C@H]4O[C@H](CN)[C@@H](O)[C@H](O)[C@H]4O)[C@@H](N)C[C@H]3N)[C@H](O)[C@@H](N)[C@@H]2O)cc1 |  | 38.1 | 49.2 | 51 | 26.8
CCCCCCCCCCCC(=O)NC[C@H]1O[C@H](O[C@H]2[C@H](O)[C@@H](O[C@H]3O[C@H](CO)[C@@H](O)[C@H](N)[C@H]3O)[C@H](N)C[C@@H]2N)[C@H](O)[C@@H](O)[C@@H]1O | 6.88 | 53.6 | 56.2 | 70.9 | 16.4
N[C@@H]1[C@@H](O)[C@@H](O[C@@H]2[C@@H](O)[C@H](O[C@H]3O[C@H](CNC(=O)c4cc(-c5ccccc5)nc5ccccc45)[C@@H](O)[C@H](O)[C@H]3O)[C@@H](N)C[C@H]2N)O[C@H](CO)[C@H]1O |  | 25.5 | 22.8 | 51 | 8
NC[C@H]1O[C@H](O[C@H]2[C@H](O)[C@@H](O[C@H]3O[C@H](COc4ccc(-c5nc6ccccc6[nH]5)cc4)[C@@H](O)[C@H](N)[C@H]3O)[C@H](N)C[C@@H]2N)[C@H](O)[C@@H](O)[C@@H]1O | 0.34 | 43.2 | 85.5 | 71.7 | 83.1
N[C@@H]1[C@@H](O)[C@@H](O[C@@H]2[C@@H](O)[C@H](O[C@H]3O[C@H](CNC(=O)c4ccccc4-c4c5ccc(=O)cc-5oc5cc(O)ccc45)[C@@H](O)[C@H](O)[C@H]3O)[C@@H](N)C[C@H]2N)O[C@H](CO)[C@H]1O | 1.42 | 56.8 | 79.6 | 83.4 | 22.3
NC[C@H]1O[C@H](O[C@H]2[C@H](O)[C@@H](O[C@H]3O[C@H](CNC(=O)c4ccccc4-c4c5ccc(=O)cc-5oc5cc(O)ccc45)[C@@H](O)[C@H](N)[C@H]3O)[C@H](N)C[C@@H]2N)[C@H](O)[C@@H](O)[C@@H]1O |  | 45.3 | 81 | 55.1 | 37.1
COc1ccc(OC[C@H]2O[C@H](O[C@@H]3[C@@H](O)[C@H](O[C@H]4O[C@H](CN)[C@@H](O)[C@H](O)[C@H]4O)[C@@H](N)C[C@H]3N)[C@H](O)[C@@H](N)[C@@H]2O)cc1 |  | 20 | 36.5 | 34.8 | 15.9
NC[C@H]1O[C@H](O[C@H]2[C@H](O)[C@@H](O[C@H]3O[C@H](COc4ccccc4)[C@@H](O)[C@H](N)[C@H]3O)[C@H](N)C[C@@H]2N)[C@H](O)[C@@H](O)[C@@H]1O |  | 36 | 69.4 | 46.7 | 14.6
NC[C@H]1O[C@H](O[C@H]2[C@H](O)[C@@H](O[C@H]3O[C@H](COc4ccc(Cl)cc4)[C@@H](O)[C@H](N)[C@H]3O)[C@H](N)C[C@@H]2N)[C@H](O)[C@@H](O)[C@@H]1O | 1.93 | 50.3 | 69.5 | 68.3 | 44.4
NC[C@H]1O[C@H](O[C@H]2[C@H](O)[C@@H](O[C@H]3O[C@H](COc4ccc(-c5ccccc5)cc4)[C@@H](O)[C@H](N)[C@H]3O)[C@H](N)C[C@@H]2N)[C@H](O)[C@@H](O)[C@@H]1O |  | 27.3 | 67.8 | 54.3 | 46.3
